# From ChEMBL document CHEMBL1201862, “PubChem BioAssay data set” (2004)
# The source made the active and inactive calls.
# Key:
# Keap1/Nrf2 = Keap1/Nrf2 (Homo sapiens, UniProt Q14145); test: Keap1-Nrf2 protein-protein interaction inhibitors, dose response, biochemical, fluorescence polarization, cherry-picked samples (AID 588683)
# ORF 73 = molecular target: T1, ORF 73 (Human herpesvirus 8, UniProt O40947); test: inhibitors of C-LANA binding to LBS DNA, dose response, biochemical, fluorescence polarization, cherry-picked samples (AID 504725); design: species or system Human gammaherpesvirus 8;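 note: fluorescence polarization of a labeled DNA duplex reporting LANA DNA binding; potency is for inhibitors that block LANA binding to the DNA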
# T1 sequence (O40947 whole entry): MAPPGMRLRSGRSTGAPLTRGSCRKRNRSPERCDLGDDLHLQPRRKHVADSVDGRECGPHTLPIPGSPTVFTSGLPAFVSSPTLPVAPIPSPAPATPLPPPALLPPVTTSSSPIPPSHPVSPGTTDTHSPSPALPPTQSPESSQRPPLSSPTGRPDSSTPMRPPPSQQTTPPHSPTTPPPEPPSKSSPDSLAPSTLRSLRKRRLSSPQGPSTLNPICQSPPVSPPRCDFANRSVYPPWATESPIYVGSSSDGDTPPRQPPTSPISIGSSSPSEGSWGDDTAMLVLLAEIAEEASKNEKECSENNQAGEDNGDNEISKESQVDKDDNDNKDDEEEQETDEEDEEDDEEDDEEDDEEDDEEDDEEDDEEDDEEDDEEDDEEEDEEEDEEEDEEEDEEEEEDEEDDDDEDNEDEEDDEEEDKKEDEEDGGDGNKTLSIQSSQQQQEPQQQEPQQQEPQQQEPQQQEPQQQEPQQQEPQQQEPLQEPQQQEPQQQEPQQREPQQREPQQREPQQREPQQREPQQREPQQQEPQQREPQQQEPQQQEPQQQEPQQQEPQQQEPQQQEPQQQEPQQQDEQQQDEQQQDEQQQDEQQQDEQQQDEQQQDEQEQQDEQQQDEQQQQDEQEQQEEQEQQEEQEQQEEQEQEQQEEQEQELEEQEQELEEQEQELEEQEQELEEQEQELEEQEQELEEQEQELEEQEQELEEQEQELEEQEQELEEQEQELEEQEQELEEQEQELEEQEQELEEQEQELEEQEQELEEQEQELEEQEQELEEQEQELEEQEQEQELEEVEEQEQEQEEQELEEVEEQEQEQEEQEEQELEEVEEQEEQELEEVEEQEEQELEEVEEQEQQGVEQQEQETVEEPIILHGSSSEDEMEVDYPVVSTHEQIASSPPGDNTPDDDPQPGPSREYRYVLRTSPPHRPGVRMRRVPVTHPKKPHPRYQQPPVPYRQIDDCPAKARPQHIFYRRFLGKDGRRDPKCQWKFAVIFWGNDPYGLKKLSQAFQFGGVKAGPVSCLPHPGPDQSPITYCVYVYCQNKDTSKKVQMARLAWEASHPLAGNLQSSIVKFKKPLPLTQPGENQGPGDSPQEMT
# [1] = molecular target: T2, Mannose-6-phosphate isomerase (Homo sapiens, UniProt P34949); test: human PMI inhibitors, high substrate, primary screen, biochemical, fluorescence intensity, high mannose 6-phosphate (AID 1220)
# T2 sequence (P34949 whole entry): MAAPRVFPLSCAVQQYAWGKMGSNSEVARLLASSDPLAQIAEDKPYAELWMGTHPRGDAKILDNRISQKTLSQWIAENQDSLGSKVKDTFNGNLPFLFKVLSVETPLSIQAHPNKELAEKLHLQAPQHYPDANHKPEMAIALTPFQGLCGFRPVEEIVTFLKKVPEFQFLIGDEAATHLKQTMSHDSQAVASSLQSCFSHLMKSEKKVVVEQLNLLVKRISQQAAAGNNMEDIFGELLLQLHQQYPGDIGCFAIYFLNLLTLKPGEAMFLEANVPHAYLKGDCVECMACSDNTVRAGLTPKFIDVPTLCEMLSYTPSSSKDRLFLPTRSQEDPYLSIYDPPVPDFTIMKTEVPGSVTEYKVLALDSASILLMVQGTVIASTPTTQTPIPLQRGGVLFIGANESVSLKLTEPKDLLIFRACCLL
# [2] = molecular target: Voltage-dependent T-type calcium channel subunit alpha-1H (Homo sapiens, UniProt O95180); type: functional;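 note: channel activity triggered by adding a high calcium stimulation buffer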
# Voltage-dependent T-type calcium channel subunit alpha-1H, sequence (O95180 whole entry): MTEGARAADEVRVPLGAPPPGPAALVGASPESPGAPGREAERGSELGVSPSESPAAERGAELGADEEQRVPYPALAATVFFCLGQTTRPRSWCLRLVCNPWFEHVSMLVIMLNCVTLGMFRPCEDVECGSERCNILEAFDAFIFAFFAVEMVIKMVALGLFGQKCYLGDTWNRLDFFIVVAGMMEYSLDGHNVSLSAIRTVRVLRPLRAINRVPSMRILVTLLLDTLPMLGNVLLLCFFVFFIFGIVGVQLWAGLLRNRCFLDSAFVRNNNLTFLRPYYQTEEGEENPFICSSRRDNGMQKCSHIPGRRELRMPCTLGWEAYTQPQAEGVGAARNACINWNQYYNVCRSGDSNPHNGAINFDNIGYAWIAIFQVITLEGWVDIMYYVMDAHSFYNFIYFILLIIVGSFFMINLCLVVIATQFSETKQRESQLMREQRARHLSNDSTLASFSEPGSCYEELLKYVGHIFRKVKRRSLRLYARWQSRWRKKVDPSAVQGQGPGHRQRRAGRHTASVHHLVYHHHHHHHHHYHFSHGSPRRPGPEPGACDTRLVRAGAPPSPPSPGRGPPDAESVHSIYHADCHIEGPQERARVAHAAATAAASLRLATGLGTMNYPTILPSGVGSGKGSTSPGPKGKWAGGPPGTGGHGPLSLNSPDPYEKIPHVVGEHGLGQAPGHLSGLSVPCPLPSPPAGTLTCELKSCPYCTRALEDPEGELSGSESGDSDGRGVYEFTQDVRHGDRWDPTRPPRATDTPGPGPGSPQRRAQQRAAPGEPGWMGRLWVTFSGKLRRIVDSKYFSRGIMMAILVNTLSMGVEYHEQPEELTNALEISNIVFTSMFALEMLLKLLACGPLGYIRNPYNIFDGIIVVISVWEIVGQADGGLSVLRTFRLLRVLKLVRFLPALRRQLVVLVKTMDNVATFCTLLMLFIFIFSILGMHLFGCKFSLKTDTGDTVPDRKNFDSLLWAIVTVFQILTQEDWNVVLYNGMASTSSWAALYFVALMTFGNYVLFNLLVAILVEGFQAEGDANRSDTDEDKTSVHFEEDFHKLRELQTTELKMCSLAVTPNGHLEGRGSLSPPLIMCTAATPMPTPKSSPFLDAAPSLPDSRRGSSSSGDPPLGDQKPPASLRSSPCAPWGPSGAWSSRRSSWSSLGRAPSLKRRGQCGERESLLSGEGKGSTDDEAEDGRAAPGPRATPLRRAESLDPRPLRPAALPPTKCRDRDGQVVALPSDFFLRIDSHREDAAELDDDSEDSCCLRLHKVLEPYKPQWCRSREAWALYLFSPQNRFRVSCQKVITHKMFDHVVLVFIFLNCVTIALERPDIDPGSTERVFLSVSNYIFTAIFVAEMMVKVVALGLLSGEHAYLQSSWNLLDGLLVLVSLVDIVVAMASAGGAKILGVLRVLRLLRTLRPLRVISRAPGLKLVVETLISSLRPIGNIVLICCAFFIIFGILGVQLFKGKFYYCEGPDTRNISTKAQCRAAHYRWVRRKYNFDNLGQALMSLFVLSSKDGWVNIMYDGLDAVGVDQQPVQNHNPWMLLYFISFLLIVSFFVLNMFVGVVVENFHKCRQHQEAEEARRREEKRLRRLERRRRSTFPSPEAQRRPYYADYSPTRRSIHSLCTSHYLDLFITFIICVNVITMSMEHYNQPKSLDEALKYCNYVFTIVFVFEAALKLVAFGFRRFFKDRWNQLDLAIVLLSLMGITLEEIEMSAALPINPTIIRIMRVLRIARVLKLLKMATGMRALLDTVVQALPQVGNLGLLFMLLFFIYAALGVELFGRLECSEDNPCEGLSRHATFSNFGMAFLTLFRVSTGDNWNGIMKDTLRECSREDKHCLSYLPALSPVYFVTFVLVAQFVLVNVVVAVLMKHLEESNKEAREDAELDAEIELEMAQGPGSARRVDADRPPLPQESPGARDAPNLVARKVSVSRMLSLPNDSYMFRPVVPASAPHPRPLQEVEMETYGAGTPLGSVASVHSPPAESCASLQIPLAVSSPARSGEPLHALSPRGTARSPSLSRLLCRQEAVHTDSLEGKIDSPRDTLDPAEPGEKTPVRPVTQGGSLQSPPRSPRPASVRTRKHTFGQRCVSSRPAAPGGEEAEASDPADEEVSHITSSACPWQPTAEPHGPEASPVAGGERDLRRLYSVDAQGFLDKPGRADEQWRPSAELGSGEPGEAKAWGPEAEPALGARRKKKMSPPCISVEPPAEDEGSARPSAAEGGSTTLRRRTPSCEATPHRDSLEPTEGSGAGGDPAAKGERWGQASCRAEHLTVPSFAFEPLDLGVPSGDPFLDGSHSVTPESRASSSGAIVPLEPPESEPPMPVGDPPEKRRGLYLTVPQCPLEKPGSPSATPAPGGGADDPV
# HEK293 [3] = test: cells; conditions: Homo sapiens
# HEK293 [4] = test: cells; conditions: Homo sapiens; remark: listed apart in the source
# [5] = molecular target: T2, Mannose-6-phosphate isomerase; test: PMI enzyme inhibitors, confirmation, biochemical, fluorescence intensity (AID 1535)
# [6] = Counterscreen for AddAB inhibitors: absorbance-based bacterial cell-based high throughput dose response assay for inhibitors of bacterial viability. [Related pubchem assays (depositor defined):AID435030, AID449728, AID449731, AID488942, AID488955, AID488956]; type: functional
# [7] = molecular target: T3, Heat shock factor protein 1 (Mus musculus, UniProt P38532); test: inhibition of MG132-induced HSE-luciferase signal, confirmation, cell-based, NIH3T3, luminescence, dose retest (AID 2382); type: functional;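 note: NIH3T3 fibroblasts with HSF1-driven luciferase reporter stressed by proteasome inhibitor MG132; luminescence from HSF1-driven luciferase expression after 8 hours of MG132 stress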
# T3 sequence (P38532 whole entry): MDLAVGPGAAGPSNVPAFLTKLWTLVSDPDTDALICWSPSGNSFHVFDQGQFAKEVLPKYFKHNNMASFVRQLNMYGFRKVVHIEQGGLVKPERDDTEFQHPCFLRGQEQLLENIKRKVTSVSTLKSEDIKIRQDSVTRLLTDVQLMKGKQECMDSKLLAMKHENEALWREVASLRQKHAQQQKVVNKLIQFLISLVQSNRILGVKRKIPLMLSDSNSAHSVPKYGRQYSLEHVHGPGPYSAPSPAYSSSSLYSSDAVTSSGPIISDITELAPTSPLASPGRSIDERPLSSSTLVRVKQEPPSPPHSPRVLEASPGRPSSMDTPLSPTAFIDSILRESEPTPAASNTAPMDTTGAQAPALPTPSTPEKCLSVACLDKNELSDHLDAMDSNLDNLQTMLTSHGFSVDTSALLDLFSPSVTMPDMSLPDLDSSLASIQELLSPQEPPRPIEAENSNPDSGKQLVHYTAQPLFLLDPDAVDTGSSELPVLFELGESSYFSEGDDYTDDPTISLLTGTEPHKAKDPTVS
# Exodeoxyribonuclease V = molecular target: T4, Exodeoxyribonuclease V (Escherichia coli (strain K12), UniProt P04993+P07648+P08394); test: E. coli RecBCD inhibitors, dose response, counter-screen for AddAB inhibitor project, absorbance, V66 E. coli, mutant T4 phage (AID 492957); type: functional, cell-based, Escherichia coli str. K-12 substr. MG1655
# T4 sequence (P04993 whole entry): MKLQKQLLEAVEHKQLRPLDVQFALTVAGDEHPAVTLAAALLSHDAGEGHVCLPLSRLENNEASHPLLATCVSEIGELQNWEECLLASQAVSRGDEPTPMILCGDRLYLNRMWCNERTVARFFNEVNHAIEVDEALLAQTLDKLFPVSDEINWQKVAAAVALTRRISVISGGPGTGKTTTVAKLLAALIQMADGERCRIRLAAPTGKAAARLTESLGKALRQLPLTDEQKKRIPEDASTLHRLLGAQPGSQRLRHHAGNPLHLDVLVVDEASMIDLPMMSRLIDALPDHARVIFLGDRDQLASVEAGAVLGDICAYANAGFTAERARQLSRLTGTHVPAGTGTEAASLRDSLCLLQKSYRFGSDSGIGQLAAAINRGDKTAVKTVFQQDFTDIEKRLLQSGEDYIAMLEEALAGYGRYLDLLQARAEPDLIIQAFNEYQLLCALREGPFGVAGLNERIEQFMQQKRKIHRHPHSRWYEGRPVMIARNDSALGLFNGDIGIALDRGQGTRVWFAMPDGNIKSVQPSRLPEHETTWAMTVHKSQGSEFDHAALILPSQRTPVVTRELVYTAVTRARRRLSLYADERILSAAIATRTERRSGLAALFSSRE
# T4 sequence (P07648 whole entry): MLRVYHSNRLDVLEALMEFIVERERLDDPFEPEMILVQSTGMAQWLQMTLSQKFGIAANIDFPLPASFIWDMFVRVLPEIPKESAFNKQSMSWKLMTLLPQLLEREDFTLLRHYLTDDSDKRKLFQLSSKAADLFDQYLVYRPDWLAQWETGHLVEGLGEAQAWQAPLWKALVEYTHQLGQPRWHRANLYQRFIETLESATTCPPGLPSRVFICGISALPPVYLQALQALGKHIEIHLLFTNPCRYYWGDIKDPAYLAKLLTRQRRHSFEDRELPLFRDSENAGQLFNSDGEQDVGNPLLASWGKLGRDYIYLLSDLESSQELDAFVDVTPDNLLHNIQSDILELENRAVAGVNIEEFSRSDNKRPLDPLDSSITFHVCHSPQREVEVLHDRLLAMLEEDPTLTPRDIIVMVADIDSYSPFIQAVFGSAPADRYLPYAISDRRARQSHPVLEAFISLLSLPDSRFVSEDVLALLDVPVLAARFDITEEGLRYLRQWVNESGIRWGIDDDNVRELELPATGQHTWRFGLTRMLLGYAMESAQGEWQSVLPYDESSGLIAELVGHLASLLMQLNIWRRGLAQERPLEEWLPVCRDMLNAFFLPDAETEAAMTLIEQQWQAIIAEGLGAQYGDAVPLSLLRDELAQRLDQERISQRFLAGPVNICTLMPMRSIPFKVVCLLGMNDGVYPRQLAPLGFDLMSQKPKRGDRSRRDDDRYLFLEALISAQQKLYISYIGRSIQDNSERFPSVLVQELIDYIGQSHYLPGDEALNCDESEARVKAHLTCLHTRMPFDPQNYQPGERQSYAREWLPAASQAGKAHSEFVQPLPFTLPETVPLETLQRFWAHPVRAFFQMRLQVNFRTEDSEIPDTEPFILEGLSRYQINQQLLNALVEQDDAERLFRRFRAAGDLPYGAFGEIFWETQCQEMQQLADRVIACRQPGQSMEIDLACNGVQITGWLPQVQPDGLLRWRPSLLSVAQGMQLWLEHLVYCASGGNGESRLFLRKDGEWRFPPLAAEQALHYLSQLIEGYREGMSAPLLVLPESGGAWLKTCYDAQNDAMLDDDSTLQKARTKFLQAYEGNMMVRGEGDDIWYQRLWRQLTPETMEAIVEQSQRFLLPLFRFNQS
# T4 sequence (P08394 whole entry): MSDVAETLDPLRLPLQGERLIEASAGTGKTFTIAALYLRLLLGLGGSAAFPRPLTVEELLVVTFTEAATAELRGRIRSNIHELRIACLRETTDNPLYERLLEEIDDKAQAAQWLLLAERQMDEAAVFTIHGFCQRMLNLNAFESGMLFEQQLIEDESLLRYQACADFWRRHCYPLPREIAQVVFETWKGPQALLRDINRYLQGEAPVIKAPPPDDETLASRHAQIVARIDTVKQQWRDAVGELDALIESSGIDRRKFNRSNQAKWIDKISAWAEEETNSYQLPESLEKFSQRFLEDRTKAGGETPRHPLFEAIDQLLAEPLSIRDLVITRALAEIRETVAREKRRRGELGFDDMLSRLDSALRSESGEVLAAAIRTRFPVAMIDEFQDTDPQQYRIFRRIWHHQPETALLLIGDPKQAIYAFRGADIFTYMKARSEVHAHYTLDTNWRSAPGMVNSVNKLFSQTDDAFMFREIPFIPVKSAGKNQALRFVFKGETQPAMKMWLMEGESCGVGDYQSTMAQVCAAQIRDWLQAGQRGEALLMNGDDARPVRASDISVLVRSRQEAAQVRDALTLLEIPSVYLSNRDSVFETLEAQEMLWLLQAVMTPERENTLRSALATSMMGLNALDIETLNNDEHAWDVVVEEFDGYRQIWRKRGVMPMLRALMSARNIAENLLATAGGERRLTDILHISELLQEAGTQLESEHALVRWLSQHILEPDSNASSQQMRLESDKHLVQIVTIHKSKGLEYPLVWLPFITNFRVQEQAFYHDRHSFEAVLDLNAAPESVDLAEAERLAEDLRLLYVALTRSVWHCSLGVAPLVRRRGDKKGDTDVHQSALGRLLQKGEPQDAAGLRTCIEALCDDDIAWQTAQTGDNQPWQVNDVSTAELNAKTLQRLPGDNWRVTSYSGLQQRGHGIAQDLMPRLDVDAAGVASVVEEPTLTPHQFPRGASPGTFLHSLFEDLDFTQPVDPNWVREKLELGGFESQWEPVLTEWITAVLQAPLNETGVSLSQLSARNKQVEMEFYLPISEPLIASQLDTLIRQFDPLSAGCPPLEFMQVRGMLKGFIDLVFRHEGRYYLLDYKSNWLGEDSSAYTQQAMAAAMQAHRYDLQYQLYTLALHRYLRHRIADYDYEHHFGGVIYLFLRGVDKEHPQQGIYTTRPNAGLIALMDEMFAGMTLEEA
# [8] = molecular target: T5, Ubiquitin-conjugating enzyme E2 N (Homo sapiens, UniProt P61088); type: functional;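 note: Dose-response confirmation in a TR-FRET assay detecting UBC13-driven polyubiquitin chain formation, inhibition measured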
# T5 sequence (P61088 whole entry): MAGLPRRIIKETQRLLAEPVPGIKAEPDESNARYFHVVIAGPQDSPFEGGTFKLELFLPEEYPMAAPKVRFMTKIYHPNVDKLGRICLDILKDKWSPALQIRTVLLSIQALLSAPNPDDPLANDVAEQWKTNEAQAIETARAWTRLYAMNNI
# [9] = microbe, parasite or virus in culture; type: functional; conditions: Mycobacterium tuberculosis
# Vero [10] = test: cells; type: functional; conditions: Chlorocebus sabaeus
# Vero [11] = test: cells; type: functional, cell-based; conditions: Chlorocebus sabaeus
# Keap1/Nrf2, sequence (Q16236 whole entry): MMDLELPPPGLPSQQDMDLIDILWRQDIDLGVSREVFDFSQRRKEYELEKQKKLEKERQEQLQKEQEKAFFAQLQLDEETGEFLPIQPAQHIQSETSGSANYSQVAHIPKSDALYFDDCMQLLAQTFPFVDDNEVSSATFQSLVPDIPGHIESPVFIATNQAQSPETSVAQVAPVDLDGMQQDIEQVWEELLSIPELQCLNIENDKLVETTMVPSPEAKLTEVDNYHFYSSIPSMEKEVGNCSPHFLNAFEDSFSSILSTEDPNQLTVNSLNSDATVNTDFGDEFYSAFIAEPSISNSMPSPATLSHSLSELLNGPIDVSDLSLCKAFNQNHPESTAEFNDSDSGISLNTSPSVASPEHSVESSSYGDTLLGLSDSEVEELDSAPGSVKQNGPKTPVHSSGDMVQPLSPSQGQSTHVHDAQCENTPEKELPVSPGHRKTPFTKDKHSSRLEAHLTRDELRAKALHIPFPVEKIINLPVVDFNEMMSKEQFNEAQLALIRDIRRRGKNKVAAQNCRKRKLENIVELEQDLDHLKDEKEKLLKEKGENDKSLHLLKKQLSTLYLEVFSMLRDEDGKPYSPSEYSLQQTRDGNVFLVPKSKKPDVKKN
# Keap1/Nrf2, sequence (Q14145 whole entry): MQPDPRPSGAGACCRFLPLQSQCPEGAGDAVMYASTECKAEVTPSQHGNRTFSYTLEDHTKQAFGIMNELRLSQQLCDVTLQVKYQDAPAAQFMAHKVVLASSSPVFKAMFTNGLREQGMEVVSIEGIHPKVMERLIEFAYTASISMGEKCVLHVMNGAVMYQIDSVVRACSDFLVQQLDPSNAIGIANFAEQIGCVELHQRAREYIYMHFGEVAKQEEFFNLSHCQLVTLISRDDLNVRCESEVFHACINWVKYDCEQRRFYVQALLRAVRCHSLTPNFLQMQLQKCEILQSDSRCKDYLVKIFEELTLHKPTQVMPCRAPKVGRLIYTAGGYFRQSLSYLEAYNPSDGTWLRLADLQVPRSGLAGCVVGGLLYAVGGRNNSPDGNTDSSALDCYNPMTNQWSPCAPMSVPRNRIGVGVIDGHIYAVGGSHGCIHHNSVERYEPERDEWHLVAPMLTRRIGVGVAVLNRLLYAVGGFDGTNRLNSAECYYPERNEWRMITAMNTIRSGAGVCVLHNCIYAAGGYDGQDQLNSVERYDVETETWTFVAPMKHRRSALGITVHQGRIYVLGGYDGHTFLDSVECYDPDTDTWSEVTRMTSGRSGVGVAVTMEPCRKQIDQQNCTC
smiles,measurement,setting,value
Cc1cc2nc3c(=O)n(C4CCCCC4)c(=O)[nH]c3nc2cc1N,AC50,Keap1/Nrf2,1.92 µM (active)
same,AC50,ORF 73,27.6 µM (active)
same,IC50,[1],> 50 µM (not active)
CCOC(=O)C1CCCN(C(=O)C2c3ccccc3Oc3ccccc32)C1 (configuration not stated),AC50,Keap1/Nrf2,> 52 µM (inactive)
same,EC50,[2],38.8 µM (active)
same,AC50,ORF 73,127 µM (active)
CC(C)Cn1c(=O)[nH]c(=O)c2c(C(F)(F)F)cc(-c3ccccc3)nc21,EC50,HEK293 [3],> 59.6 µM (inactive)
same,EC50,HEK293 [4],> 59.6 µM (inactive)
CCOc1nss/c1=N\c1ccc2ccccc2c1,IC50,[5],> 100 µM (inactive)
Clc1nss/c1=N\C1=NCCS1,IC50,[5],> 100 µM (inactive)
Cc1ccc(-c2oc3ccccc3c(=O)c2O)cc1,IC50,[6],> 119 µM (inactive)
same,EC50,[7],> 195 µM (not active)
same,IC50,Exodeoxyribonuclease V,> 119 µM (inactive)
CN1CCN(CC/C=C2/c3ccccc3Sc3ccc(S(=O)(=O)N(C)C)cc32)CC1 [THIOTHIXENE],IC50,[8],> 20 µM (inactive)
same,CC50,[9],> 40 µM (active)
same,CC50,Vero [10],15.2 µM (active)
same,IC50,Vero [11],> 25 µM (active)
